Test results reported in PubChem BioAssay (NCI).
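These data come from cells grown in 96-well plates and exposed to compound for 48 hours at five concentrations. The concentration for full growth arrest is given as TGI.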

What was measured:
Assay in all cases: growth of human tumour cells (NCI), 48 h
NCI-H522 lung = system: NCI-H522 lung
SK-MEL-2 melanoma = system: SK-MEL-2 melanoma
HOP-18 NSCLC = system: HOP-18 NSCLC
KM20L2 colon = system: KM20L2 colon
SR leukemia = system: SR leukemia
K-562 leukemia = system: K-562 leukemia
NCI-H460 lung = system: NCI-H460 lung
SNB-78 CNS = system: SNB-78 CNS
SF-539 CNS = system: SF-539 CNS
HT29 colon = system: HT29 colon
LXFL 529 NSCLC = system: LXFL 529 NSCLC
U251 CNS = system: U251 CNS
OVCAR-5 ovarian = system: OVCAR-5 ovarian
A549 NSCLC = system: A549 NSCLC
XF 498 CNS = system: XF 498 CNS
M19-MEL melanoma = system: M19-MEL melanoma
HCT-116 colon = system: HCT-116 colon
RXF-631 renal = system: RXF-631 renal
SK-MEL-28 melanoma = system: SK-MEL-28 melanoma
IGROV1 ovarian = system: IGROV1 ovarian
HL-60(TB) leukemia = system: HL-60(TB) leukemia
ACHN renal = system: ACHN renal
HCC-2998 colon = system: HCC-2998 colon
EKVX NSCLC = system: EKVX NSCLC
UO-31 renal = system: UO-31 renal
HOP-92 NSCLC = system: HOP-92 NSCLC
SN12C renal = system: SN12C renal
DMS 114 small cell lung = system: DMS 114 small cell lung
OVCAR-4 ovarian = system: OVCAR-4 ovarian
DLD-1 colon = system: DLD-1 colon
SW-620 colon = system: SW-620 colon
OVCAR-8 ovarian = system: OVCAR-8 ovarian
786-0 renal = system: 786-0 renal
SNB-19 CNS = system: SNB-19 CNS
COLO 205 colon = system: COLO 205 colon
TK-10 renal = system: TK-10 renal
A498 renal = system: A498 renal
SF-295 CNS = system: SF-295 CNS
SF-268 CNS = system: SF-268 CNS
UACC-257 melanoma = system: UACC-257 melanoma
LOX IMVI melanoma = system: LOX IMVI melanoma
MOLT-4 leukemia = system: MOLT-4 leukemia
HOP-62 NSCLC = system: HOP-62 NSCLC
KM12 colon = system: KM12 colon
HCT-15 colon = system: HCT-15 colon
SNB-75 CNS = system: SNB-75 CNS
NCI-H226 lung = system: NCI-H226 lung
RXF 393 renal = system: RXF 393 renal
MALME-3M melanoma = system: MALME-3M melanoma
NCI-H23 lung = system: NCI-H23 lung
RPMI-8226 leukemia = system: RPMI-8226 leukemia
SK-MEL-5 melanoma = system: SK-MEL-5 melanoma
CAKI-1 renal = system: CAKI-1 renal
UACC-62 melanoma = system: UACC-62 melanoma
DMS 273 small cell lung = system: DMS 273 small cell lung
CCRF-CEM leukemia = system: CCRF-CEM leukemia
SK-OV-3 ovarian = system: SK-OV-3 ovarian
M14 melanoma = system: M14 melanoma
OVCAR-3 ovarian = system: OVCAR-3 ovarian

## O=C1CCC2(c3ccc(Cl)cc3)Nc3ccccc3N12 (configuration not stated)
NCI-H522 lung
  TGI: > 100 µM
SK-MEL-2 melanoma
  TGI: > 100 µM
HOP-18 NSCLC
  TGI: > 100 µM
KM20L2 colon
  TGI: > 100 µM
SR leukemia
  TGI: > 100 µM
K-562 leukemia
  TGI: > 100 µM
NCI-H460 lung
  TGI: > 100 µM
SNB-78 CNS
  TGI: > 100 µM
SF-539 CNS
  TGI: > 100 µM
HT29 colon
  TGI: > 100 µM
LXFL 529 NSCLC
  TGI: > 100 µM
U251 CNS
  TGI: > 100 µM
OVCAR-5 ovarian
  TGI: > 100 µM
A549 NSCLC
  TGI: > 100 µM
XF 498 CNS
  TGI: > 100 µM
M19-MEL melanoma
  TGI: > 100 µM
HCT-116 colon
  TGI: > 100 µM
RXF-631 renal
  TGI: > 100 µM
SK-MEL-28 melanoma
  TGI: > 100 µM
IGROV1 ovarian
  TGI: > 100 µM
HL-60(TB) leukemia
  TGI: > 100 µM
ACHN renal
  TGI: > 100 µM
HCC-2998 colon
  TGI: > 100 µM
EKVX NSCLC
  TGI: > 100 µM
UO-31 renal
  TGI: > 100 µM
HOP-92 NSCLC
  TGI: 90.6 µM
SN12C renal
  TGI: > 100 µM
DMS 114 small cell lung
  TGI: > 100 µM
OVCAR-4 ovarian
  TGI: > 100 µM
DLD-1 colon
  TGI: > 100 µM
SW-620 colon
  TGI: > 100 µM
OVCAR-8 ovarian
  TGI: > 100 µM
786-0 renal
  TGI: > 100 µM
SNB-19 CNS
  TGI: > 100 µM
COLO 205 colon
  TGI: > 100 µM
TK-10 renal
  TGI: > 100 µM
A498 renal
  TGI: > 100 µM
SF-295 CNS
  TGI: > 100 µM
SF-268 CNS
  TGI: > 100 µM
UACC-257 melanoma
  TGI: > 100 µM
LOX IMVI melanoma
  TGI: > 100 µM
MOLT-4 leukemia
  TGI: > 100 µM
HOP-62 NSCLC
  TGI: > 100 µM
KM12 colon
  TGI: > 100 µM
HCT-15 colon
  TGI: > 100 µM
SNB-75 CNS
  TGI: > 100 µM
NCI-H226 lung
  TGI: > 100 µM
RXF 393 renal
  TGI: > 100 µM
MALME-3M melanoma
  TGI: > 100 µM
NCI-H23 lung
  TGI: > 100 µM
RPMI-8226 leukemia
  TGI: > 100 µM

## COC(=O)/C=C1\CCC2[C@@H](C(=O)CC3[C@]2(C)CCC[C@@]3(C)C(=O)OC)C1C (some centres not stated)
NCI-H522 lung
  TGI: 36 µM
SK-MEL-5 melanoma
  TGI: 28 µM
SK-MEL-2 melanoma
  TGI: 39.4 µM
HOP-18 NSCLC
  TGI: 79.4 µM
KM20L2 colon
  TGI: 80.3 µM
K-562 leukemia
  TGI: 41.3 µM
NCI-H460 lung
  TGI: 32.9 µM
SNB-78 CNS
  TGI: > 100 µM
SF-539 CNS
  TGI: 61.1 µM
HT29 colon
  TGI: 61 µM
LXFL 529 NSCLC
  TGI: 23.7 µM
U251 CNS
  TGI: > 100 µM
OVCAR-5 ovarian
  TGI: > 100 µM
A549 NSCLC
  TGI: 52 µM
CAKI-1 renal
  TGI: > 100 µM
UACC-62 melanoma
  TGI: 30 µM
XF 498 CNS
  TGI: 28 µM
M19-MEL melanoma
  TGI: 39.7 µM
HCT-116 colon
  TGI: 48.3 µM
RXF-631 renal
  TGI: 63.1 µM
SK-MEL-28 melanoma
  TGI: 31.8 µM
IGROV1 ovarian
  TGI: 57 µM
HL-60(TB) leukemia
  TGI: 35.1 µM
ACHN renal
  TGI: 63.9 µM
HCC-2998 colon
  TGI: 97.9 µM
EKVX NSCLC
  TGI: 72.8 µM
UO-31 renal
  TGI: 44.4 µM
HOP-92 NSCLC
  TGI: 50.6 µM
SN12C renal
  TGI: 70.8 µM
DMS 114 small cell lung
  TGI: 37.2 µM
DMS 273 small cell lung
  TGI: 52.4 µM
OVCAR-4 ovarian
  TGI: 78.8 µM
DLD-1 colon
  TGI: > 100 µM
SW-620 colon
  TGI: 64.1 µM
CCRF-CEM leukemia
  TGI: 38.1 µM
OVCAR-8 ovarian
  TGI: 50.5 µM
786-0 renal
  TGI: > 100 µM
SNB-19 CNS
  TGI: > 100 µM
COLO 205 colon
  TGI: 33 µM
TK-10 renal
  TGI: 53.4 µM
A498 renal
  TGI: 99.7 µM
SF-295 CNS
  TGI: 71.8 µM
SF-268 CNS
  TGI: 52.1 µM
UACC-257 melanoma
  TGI: 33.9 µM
SK-OV-3 ovarian
  TGI: 72.4 µM
MOLT-4 leukemia
  TGI: 25.9 µM
HOP-62 NSCLC
  TGI: 69.7 µM
KM12 colon
  TGI: 42.6 µM
M14 melanoma
  TGI: 34.2 µM
HCT-15 colon
  TGI: > 100 µM
SNB-75 CNS
  TGI: 47.9 µM
NCI-H226 lung
  TGI: 56.6 µM
OVCAR-3 ovarian
  TGI: 89 µM
MALME-3M melanoma
  TGI: 54.1 µM
RPMI-8226 leukemia
  TGI: 19.9 µM

## C[C@]12Cc3conc3C(O)=C1CC[C@@H]1C2CC[C@@]2(C)C1CC[C@@H]2O (some centres not stated)
NCI-H522 lung
  TGI: 13.5 µM
SK-MEL-5 melanoma
  TGI: 29.9 µM
SK-MEL-2 melanoma
  TGI: 21.4 µM
HOP-18 NSCLC
  TGI: > 100 µM
KM20L2 colon
  TGI: > 100 µM
K-562 leukemia
  TGI: > 100 µM
NCI-H460 lung
  TGI: 40.7 µM
SNB-78 CNS
  TGI: > 100 µM
SF-539 CNS
  TGI: 44 µM
HT29 colon
  TGI: > 100 µM
LXFL 529 NSCLC
  TGI: 33.5 µM
U251 CNS
  TGI: 64.4 µM
OVCAR-5 ovarian
  TGI: > 100 µM
A549 NSCLC
  TGI: 85.2 µM
CAKI-1 renal
  TGI: > 100 µM
UACC-62 melanoma
  TGI: 54.6 µM
XF 498 CNS
  TGI: 33.9 µM
M19-MEL melanoma
  TGI: 74.5 µM
SK-MEL-28 melanoma
  TGI: > 100 µM
IGROV1 ovarian
  TGI: > 100 µM
HL-60(TB) leukemia
  TGI: 10.7 µM
ACHN renal
  TGI: > 100 µM
EKVX NSCLC
  TGI: 64.7 µM
UO-31 renal
  TGI: 53.3 µM
HOP-92 NSCLC
  TGI: 63.6 µM
SN12C renal
  TGI: > 100 µM
DMS 273 small cell lung
  TGI: 25.2 µM
OVCAR-4 ovarian
  TGI: > 100 µM
SW-620 colon
  TGI: > 100 µM
CCRF-CEM leukemia
  TGI: 55.5 µM
OVCAR-8 ovarian
  TGI: 88.5 µM
786-0 renal
  TGI: > 100 µM
SNB-19 CNS
  TGI: > 100 µM
COLO 205 colon
  TGI: 99.4 µM
TK-10 renal
  TGI: > 100 µM
A498 renal
  TGI: 57.7 µM
SF-295 CNS
  TGI: 88.3 µM
SF-268 CNS
  TGI: 73.1 µM
UACC-257 melanoma
  TGI: > 100 µM
SK-OV-3 ovarian
  TGI: 89 µM
LOX IMVI melanoma
  TGI: 24.9 µM
MOLT-4 leukemia
  TGI: 37.7 µM
HOP-62 NSCLC
  TGI: > 100 µM
KM12 colon
  TGI: 70.7 µM
M14 melanoma
  TGI: 50 µM
HCT-15 colon
  TGI: > 100 µM
SNB-75 CNS
  TGI: 31.1 µM
NCI-H226 lung
  TGI: 56.8 µM
RXF 393 renal
  TGI: 44.9 µM
OVCAR-3 ovarian
  TGI: 52.5 µM
MALME-3M melanoma
  TGI: 87.2 µM
NCI-H23 lung
  TGI: 64.3 µM
RPMI-8226 leukemia
  TGI: 20.4 µM

## C=C(C)CC(C(=O)O)c1ccc(C)cc1 (configuration not stated)
SK-MEL-5 melanoma
  TGI: > 100 µM
SK-MEL-2 melanoma
  TGI: > 100 µM
HOP-18 NSCLC
  TGI: > 100 µM
KM20L2 colon
  TGI: > 100 µM
SR leukemia
  TGI: > 100 µM
K-562 leukemia
  TGI: > 100 µM
NCI-H460 lung
  TGI: > 100 µM
SNB-78 CNS
  TGI: > 100 µM
SF-539 CNS
  TGI: > 100 µM
HT29 colon
  TGI: > 100 µM
U251 CNS
  TGI: > 100 µM
OVCAR-5 ovarian
  TGI: > 100 µM
A549 NSCLC
  TGI: > 100 µM
CAKI-1 renal
  TGI: > 100 µM
UACC-62 melanoma
  TGI: > 100 µM
XF 498 CNS
  TGI: > 100 µM
M19-MEL melanoma
  TGI: > 100 µM
HCT-116 colon
  TGI: > 100 µM
SK-MEL-28 melanoma
  TGI: > 100 µM
IGROV1 ovarian
  TGI: > 100 µM
ACHN renal
  TGI: > 100 µM
EKVX NSCLC
  TGI: > 100 µM
HOP-92 NSCLC
  TGI: > 100 µM
SN12C renal
  TGI: > 100 µM
DMS 114 small cell lung
  TGI: > 100 µM
DMS 273 small cell lung
  TGI: > 100 µM
OVCAR-4 ovarian
  TGI: > 100 µM
DLD-1 colon
  TGI: > 100 µM
SW-620 colon
  TGI: > 100 µM
OVCAR-8 ovarian
  TGI: > 100 µM
786-0 renal
  TGI: > 100 µM
SNB-19 CNS
  TGI: > 100 µM
COLO 205 colon
  TGI: > 100 µM
TK-10 renal
  TGI: > 100 µM
A498 renal
  TGI: > 100 µM
SF-295 CNS
  TGI: > 100 µM
SF-268 CNS
  TGI: > 100 µM
UACC-257 melanoma
  TGI: > 100 µM
LOX IMVI melanoma
  TGI: > 100 µM
HOP-62 NSCLC
  TGI: > 100 µM
KM12 colon
  TGI: > 100 µM
HCT-15 colon
  TGI: > 100 µM
SNB-75 CNS
  TGI: > 100 µM
RXF 393 renal
  TGI: > 100 µM
OVCAR-3 ovarian
  TGI: > 100 µM
MALME-3M melanoma
  TGI: > 100 µM
NCI-H23 lung
  TGI: > 100 µM
RPMI-8226 leukemia
  TGI: > 100 µM
